Calls of active or inactive are those of the source. The calls are words filed in the database; no cut-off is given here.
Experiments:
[1] = target: T1, Estrogen receptor (Homo sapiens) (UniProt P03372); experiment: Activity at human estrogen receptor expressed in transgenic Arabidopsis plant at >100 uM by pER8-GFP reporter assay
T1 sequence (whole entry): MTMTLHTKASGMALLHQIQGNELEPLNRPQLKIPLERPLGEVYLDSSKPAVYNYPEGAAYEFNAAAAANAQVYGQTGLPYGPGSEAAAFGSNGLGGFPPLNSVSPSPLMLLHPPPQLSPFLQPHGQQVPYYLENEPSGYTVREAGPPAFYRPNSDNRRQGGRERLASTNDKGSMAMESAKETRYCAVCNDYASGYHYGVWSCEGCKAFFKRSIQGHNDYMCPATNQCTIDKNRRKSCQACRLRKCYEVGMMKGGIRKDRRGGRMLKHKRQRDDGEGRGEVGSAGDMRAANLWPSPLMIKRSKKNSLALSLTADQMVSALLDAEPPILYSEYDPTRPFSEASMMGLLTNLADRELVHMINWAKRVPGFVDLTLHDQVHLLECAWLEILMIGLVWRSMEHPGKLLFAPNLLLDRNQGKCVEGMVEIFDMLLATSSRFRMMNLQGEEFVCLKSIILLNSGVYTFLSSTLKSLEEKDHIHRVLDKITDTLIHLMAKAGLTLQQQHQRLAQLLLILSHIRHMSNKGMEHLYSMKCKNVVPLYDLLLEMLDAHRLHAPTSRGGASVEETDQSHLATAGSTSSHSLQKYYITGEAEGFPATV

[2] = target: T1, Estrogen receptor (Homo sapiens); experiment: Activity at human estrogen receptor expressed in transgenic Arabidopsis plant at >10 uM by pER8-GFP reporter assay
[3] = target: T1, Estrogen receptor (Homo sapiens); experiment: Activity at human estrogen receptor expressed in transgenic Arabidopsis plant at >100 ug/mL by pER8-GFP reporter assay

For O=C1C=CC(O)(c2cc(=O)c3c(O)cc(O)cc3o2)C=C1, which Activity [1] is on record?
Its Activity is “Active”.

With C[C@]12CC[C@H]3[C@@H](CCC4=CC(=O)CC[C@@]43C)[C@@H]1CC[C@@H]2O as the molecule, how does the Activity [2] read?
Its Activity is “Active”.

How did the Activity [3] turn out when O=c1c(-c2ccc(O)cc2)coc2c([C@@H]3O[C@H](CO)[C@@H](O)[C@H](O)[C@H]3O)c(O)ccc12 was run?
The Activity was “Active”.
